Read-outs that look alike come from different tables or passages of the source.
System: modified Shay rat
Assay: Antiulcerogenic and secretion-inhibiting action on the modified Shay rat (pylorus ligature plus oral acetylsalicylic acid)
Type: in vivo
Settings: for Inhibition of acid secretion: Reduction in HCl secretion / Protective action on stomach: Reduction in lesion index: 4 hours; for ED50: Rattus norvegicus, 4 h, i.d.
Method: Ulcers are provoked in rats which have fasted for 24 hours (female, 180-200 g, 4 animals per cage on high grid) by pylorus ligature (under diethyl ether anaesthesia) and oral administration of 100 mg/10 ml/kg acetylsalicylic acid. The substances to be tested are administered intraduodenally (2,5 ml/kg) immediately following t[e pylorus ligature. The wound is closed by means of Michel clamps. 4 hours later, the animals are sacrificed under ether anaesthesia by atlas dislocation and the stomach is resected. The stomach is opened along the greater curvature and clamped on a cork sheet after first determining the amount of secreted gastric juice (volume) and subsequently its HCl content (titration with sodium hydroxide solution). Using a stereomicroscope at 10×magnification, the number and size (=diameter) of ulcers present are determined. The product of severity (according to the scale of points below) and number of ulcers serves as an individual lesion index. |Scale of points: | No ulcers 0 | Ulcer diameter | 0.1-1.4 mm | 1 | 1.5-2.4 mm | 2 | 2.5-3.4 mm | 3 | 3.5-4.4 mm | 4 | 4.5-5.4 mm | 5 | >5.5 mm 6 The reduction in the mean lesion index of each treated group compared with the control group (=100%) serves as a measure of the antiulcerogenic effect. The ED50 designates the dose which reduces the mean lesion index or the HCl secretion by 50% compared with the control.

[1] = 0.3 μmol/kg i.d. (intraduodenal)
[2] = 1.0 μmol/kg i.d. (intraduodenal)
[3] = 3.0 μmol/kg i.d. (intraduodenal)
[4] = 10.0 μmol/kg i.d. (intraduodenal)
[5] = 30.0 μmol/kg i.d. (intraduodenal)
[6] = dose (interpolated) which reduces the HCl secretion by 50% compared with control group, read-out: Inhibition of acid secretion: Approx. ED50
[7] = dose (interpolated) which reduces the lesion index by 50% compared with control group, read-out: Protective action on stomach: Approx. ED50
[8] = 0.6 μmol/kg i.d. (intraduodenal)
[9] = 1.5 μmol/kg i.d. (intraduodenal)
[10] = 2.0 μmol/kg i.d. (intraduodenal)
[11] = 6.0 μmol/kg i.d. (intraduodenal)
[12] = 0.1 μmol/kg i.d. (intraduodenal)

SMILES: Cc1nc2c(O[C@@H]3c4ccccc4C[C@H]3O)cccn2c1C (relative stereo) [Example 2]
- Inhibition of acid secretion: Reduction in HCl secretion [1]: -20%
- Protective action on stomach: Reduction in lesion index [1]: 25%
- Inhibition of acid secretion: Reduction in HCl secretion [2]: 23%
- Protective action on stomach: Reduction in lesion index [2]: 47%
- Inhibition of acid secretion: Reduction in HCl secretion [3]: 52%
- Protective action on stomach: Reduction in lesion index [3]: 81%
- Inhibition of acid secretion: Reduction in HCl secretion [4]: 47%
- Protective action on stomach: Reduction in lesion index [4]: 94%
- Inhibition of acid secretion: Reduction in HCl secretion [5]: 95%
- Protective action on stomach: Reduction in lesion index [5]: 100%
- ED50 [6]: ~4.27 µmol/kg
- ED50 [7]: ~0.84 µmol/kg

SMILES: Cc1nc2c(O[C@@H]3c4ccccc4C[C@H]3O)cccn2c1CC#N (relative stereo) [Example 4, 3-cyanomethyl-8-(2-(trans)-hydroxy-2,3-dihydro-1-indenyloxy)-2-methyl-imidazo[1,2-a]pyridine]
- Inhibition of acid secretion: Reduction in HCl secretion [1]: -26%
- Protective action on stomach: Reduction in lesion index [1]: 18%
- Inhibition of acid secretion: Reduction in HCl secretion [8]: 12%
- Protective action on stomach: Reduction in lesion index [8]: 33%
- Inhibition of acid secretion: Reduction in HCl secretion [2]: 22%
- Protective action on stomach: Reduction in lesion index [2]: 35%
- Inhibition of acid secretion: Reduction in HCl secretion [9]: 50%
- Protective action on stomach: Reduction in lesion index [9]: 94%
- Inhibition of acid secretion: Reduction in HCl secretion [10]: 51%
- Protective action on stomach: Reduction in lesion index [10]: 98%
- Inhibition of acid secretion: Reduction in HCl secretion [3]: 63%
- Protective action on stomach: Reduction in lesion index [3]: 93%
- Inhibition of acid secretion: Reduction in HCl secretion [11]: 73%
- Protective action on stomach: Reduction in lesion index [11]: 100%
- Inhibition of acid secretion: Reduction in HCl secretion [5]: 99%
- Protective action on stomach: Reduction in lesion index [5]: 100%
- ED50 [6]: ~1.95 µmol/kg
- ED50 [7]: ~1.04 µmol/kg

SMILES: Cc1nc2c(O[C@@H]3c4ccccc4C[C@H]3O)cccn2c1CO (relative stereo) [Example 8, 3-hydroxymethyl-8-(2-(trans)-hydroxy-2,3-dihydro-1-indenyloxy)-2-methyl-imidazo[1,2-a]pyridine]
- Inhibition of acid secretion: Reduction in HCl secretion [12]: 10%
- Protective action on stomach: Reduction in lesion index [12]: 13%
- Inhibition of acid secretion: Reduction in HCl secretion [1]: 19%
- Protective action on stomach: Reduction in lesion index [1]: 43%
- Inhibition of acid secretion: Reduction in HCl secretion [2]: 25%
- Protective action on stomach: Reduction in lesion index [2]: 47%
- Inhibition of acid secretion: Reduction in HCl secretion [3]: 20%
- Protective action on stomach: Reduction in lesion index [3]: 74%
- Inhibition of acid secretion: Reduction in HCl secretion [4]: 35%
- Protective action on stomach: Reduction in lesion index [4]: 94%
- Inhibition of acid secretion: Reduction in HCl secretion [5]: 98%
- Protective action on stomach: Reduction in lesion index [5]: 100%
- ED50 [6]: ~12.9 µmol/kg
- ED50 [7]: ~0.69 µmol/kg

SMILES: Cc1nc2c(O[C@@H]3c4ccccc4C[C@H]3O)cccn2c1N.Cl (relative stereo) [Example 11, 3-amino-8-(2-(trans)-hydroxy-2,3-dihydro-1-indenyloxy)-2-methyl-imidazo[1,2-a]pyridine-hydrochloride]
- Inhibition of acid secretion: Reduction in HCl secretion [2]: 16%
- Protective action on stomach: Reduction in lesion index [2]: 27%
- Inhibition of acid secretion: Reduction in HCl secretion [3]: 32%
- Protective action on stomach: Reduction in lesion index [3]: 71%
- Inhibition of acid secretion: Reduction in HCl secretion [4]: 67%
- Protective action on stomach: Reduction in lesion index [4]: 100%
- ED50 [6]: ~6.02 µmol/kg
- ED50 [7]: ~1.69 µmol/kg

SMILES: Cc1nc2c(O[C@@H]3c4ccc(F)cc4C[C@H]3O)cccn2c1CO (relative stereo) [Example 30, 8-(5-fluoro-2-(trans)-hydroxy-2,3-dihydro-1-indenyloxy)-3-hydroxymethyl-2-methyl-imidazo[1,2-a]pyridine]
- Inhibition of acid secretion: Reduction in HCl secretion [3]: 41%
- Protective action on stomach: Reduction in lesion index [3]: 86%

— patent publication US5112834A, “Imidazole protectorant for the stomach and intestine” (BYK Gulden Lomberg Chemische Fabrik GmbH, priority 1987, dated 1992)
